From patent publication US20060063736A1, “Compositions and methods for inhibiting mucin-type O-linked glycosylation” (priority 2004, published 2006)

Assays:
[1] = target: T1, β1-4galactosyltransferase (β1-4GalT) (Bos taurus, UniProt P08037); experiment: Continuous assay for β1-4GalT activity; type: biochemical, bovine; details: for inhibitory activity against β1-4GalT: highest concentration tested (500 μM)
T1 construct: purchased Calbiochem
T1 sequence (P08037 1-402): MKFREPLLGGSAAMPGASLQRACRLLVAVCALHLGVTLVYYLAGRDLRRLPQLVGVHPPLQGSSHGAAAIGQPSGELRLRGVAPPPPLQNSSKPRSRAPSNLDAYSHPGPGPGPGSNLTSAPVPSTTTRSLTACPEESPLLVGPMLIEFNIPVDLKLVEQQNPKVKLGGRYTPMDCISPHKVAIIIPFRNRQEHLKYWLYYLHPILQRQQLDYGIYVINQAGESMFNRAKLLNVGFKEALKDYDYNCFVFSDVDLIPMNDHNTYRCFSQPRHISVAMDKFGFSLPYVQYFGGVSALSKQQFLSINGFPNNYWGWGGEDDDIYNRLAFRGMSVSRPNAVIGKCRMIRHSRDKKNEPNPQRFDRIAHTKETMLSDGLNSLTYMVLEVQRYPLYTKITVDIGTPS
Procedure: (§1) The enzymatic reactions contained the following components in a final volume of 100 μL: 20 mM MnCl2, 100 mM sodium cacodylate, pH 6.5, 5 U of pyruvate kinase, 5 U of lactate dehydrogenase, 2 mM PEP, 0.2 mM NADH with 0.4 mU of β1-4GalT, 1 mM βOMeGlcNAc, 25 μM UDP-Gal or 1.0 mU of α1-3GalT, 1 mM LacNAc, 100 μM UDP-Gal and various concentrations of 1-68A or 2-68A in 2.5% DMSO. The reaction mixtures were incubated at 37° C. for 10 min before the reaction was initiated by the addition of UDP-Gal. The change in absorbance was monitored over 20 min at 340 nm.
(§2) To determine the selectivity of the compounds among the broader family of UDP-sugar utilizing enzymes, 1-68A and 2-68A were tested against bovine β1-4galactosyltransferase (β1-4GalT) and porcine α1-3galactosyltransferase (α1-3GalT), using a previously reported continuous colorimetric assay. Fitzgerald et al. (1970) Anal. Biochem. 36:43-61. Neither compound was active against β1-4GalT or α1-3GalT at the highest concentration tested (500 μM) (Entries 9 and 10, Table 1).

[2] = system: UDP-galactopyranose mutase; details: Scherman et al. (2003); cited from earlier work
[3] = target: T2, α1-3galactosyltransferase (α1-3GalT) (Sus scrofa, UniProt P50127); experiment: Continuous assay for α1-3GalT activity; type: biochemical, porcine; details: for inhibitory activity against α1-3GalT: highest concentration tested (500 μM)
T2 construct: purchased Calbiochem
Procedure: as §1, §2

mppGalNAcT-4 = target: T3, mppGalNAcT-4 (Mus musculus, UniProt O08832); experiment: ELLA for ppGalNAcTs, mppGalNAcT-4; type: biochemical, murine; details: 20 μM UDP-GalNAc, 50 μM EA2 peptide 4
T3 construct: plasmids encoding truncated secreted ppGalNAcTs-1 to −5, -7, -10 and -11; made in house; host or cells: COS-7
T3 sequence (O08832 36-578 limits assumed): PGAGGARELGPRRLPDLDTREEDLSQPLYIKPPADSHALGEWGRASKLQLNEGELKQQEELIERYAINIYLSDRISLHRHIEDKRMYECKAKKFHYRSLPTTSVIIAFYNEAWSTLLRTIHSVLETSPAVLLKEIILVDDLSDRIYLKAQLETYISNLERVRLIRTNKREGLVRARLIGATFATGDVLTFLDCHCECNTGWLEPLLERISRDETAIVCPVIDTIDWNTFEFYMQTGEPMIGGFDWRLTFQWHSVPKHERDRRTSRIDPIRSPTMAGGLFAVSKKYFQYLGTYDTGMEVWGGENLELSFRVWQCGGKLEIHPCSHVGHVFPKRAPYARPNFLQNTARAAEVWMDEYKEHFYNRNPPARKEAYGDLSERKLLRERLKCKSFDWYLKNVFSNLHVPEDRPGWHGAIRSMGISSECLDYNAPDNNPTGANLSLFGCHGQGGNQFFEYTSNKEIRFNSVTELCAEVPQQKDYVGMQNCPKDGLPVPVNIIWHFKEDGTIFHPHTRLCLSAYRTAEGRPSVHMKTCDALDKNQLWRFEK
Procedure: COS-7 cells were transiently transfected with plasmids encoding truncated secreted ppGalNAcTs-1 to −5, -7, -10 and -11 as previously described. Hagen et al. (1997) J. Biol. Chem. 272:13843-13848. The crude conditioned medium was used as the enzyme source.
Standard reaction conditions for ppGalNAcT assays were as follows. The reaction mixture contained the following components in a final volume of 25 μL: 10 mM MnCl2, 40 mM sodium cacodylate, 40 mM β-mercaptoethanol, 0.1% Triton X-100, pH 6.5, 5 μL of conditioned media, and various concentrations of EA2 peptide 4, UDP-GalNAc and inhibitor. All uridine-based compounds were dissolved in dimethyl sulfoxide (DMSO). […] Reaction rates were linear over the period monitored (20-30 min).
96-Well NeutrAvidin-coated plates were prewashed 3 times with 200 μL of wash buffer (25 mM Tris, 150 mM NaCl, 0.1% bovine serum albumin (BSA) (w/v), and 0.05% Tween (v/v), pH 7.2). […] After 3 washes with 200 μL of PBS, bound HPA-HRP was quantified by the addition of 100 μL of TMB peroxide solution. […] HRP activity was terminated by the addition of 50 μL of 2 N H2SO4 and the resulting solution was analyzed at 450 nm using a UV/Vis microtiter plate reader. The amount of product generated by the ppGalNAcT was extrapolated from absorbance values using an equation fit to the standard curve derived from Origin 6.1 software.

T2 sequence (P50127 whole entry): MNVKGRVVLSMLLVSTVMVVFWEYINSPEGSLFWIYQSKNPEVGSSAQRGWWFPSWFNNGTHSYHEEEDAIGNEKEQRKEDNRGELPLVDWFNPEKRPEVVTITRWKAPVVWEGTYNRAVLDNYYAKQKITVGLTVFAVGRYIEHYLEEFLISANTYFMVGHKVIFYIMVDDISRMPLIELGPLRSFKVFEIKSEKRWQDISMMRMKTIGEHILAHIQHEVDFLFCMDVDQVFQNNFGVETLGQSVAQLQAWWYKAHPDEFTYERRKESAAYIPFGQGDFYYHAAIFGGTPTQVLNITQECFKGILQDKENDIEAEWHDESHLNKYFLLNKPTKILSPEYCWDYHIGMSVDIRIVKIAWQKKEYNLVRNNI

| Structure (SMILES) | IC50 [1] | inhibitory activity against β1-4GalT [1] | identified in library screen against UDP-galactopyranose mutase [2] | IC50 [3] | inhibitory activity against α1-3GalT [3] | IC50 (mppGalNAcT-4) |
| --- | --- | --- | --- | --- | --- | --- |
| O=c1ccn([C@@H]2O[C@H](CON=Cc3ccc(O)c(O)c3O)[C@@H](O)[C@H]2O)c(=O)[nH]1 [1-68A] | > 500 µM | lack of inhibitory activity | not identified | > 500 µM | lack of inhibitory activity | 30 ± 5 µM |
| O=C(CON=Cc1ccc(O)c(O)c1O)NC[C@H]1O[C@@H](n2ccc(=O)[nH]c2=O)[C@H](O)[C@@H]1O [2-68A] | > 500 µM | lack of inhibitory activity | not identified | > 500 µM | lack of inhibitory activity | 20 ± 5 µM |
